In article PMC8617627, “Novel DYRK1A Inhibitor Rescues Learning and Memory Deficits in a Mouse Model of Down Syndrome” (Pharmaceuticals, 2021):

What was measured:
Ts65Dn mice = assay: Contextual fear conditioning; type: in vivo
Description: The capacity for contextual memory of 10- to 16-week old Ts65Dn mice was compared with age-matched euploid control mice using a fear conditioning protocol. Briefly, the mice were exposed for 3 min to the context test chamber serving as a conditioning stimulus, followed by an electric shock for 2 s representing the unconditioned stimulus. […] Freezing, defined as a species-specific defensive reaction characterized by lack of movement besides respiration and heartbeat, associated with crouching posture, was used as a measure of learning, and assessed for 180 s, every 9 s by two trained observers […] of the mouse genotypes and the pharmacological agent being used.
The capacity for contextual memory of 10- to 16-week-old Ts65Dn mice was compared with age-matched euploid control mice using the same fear conditioning protocol used in a previous work with the drug memantine. Briefly, the mice were exposed for 3 min to the context (Med Associates, St. Albans, VT, Modular Mouse Test Chamber) serving as a conditioning stimulus, followed by an electric shock (2 s, 0.7 mA, constant electric current) representing the unconditioned stimulus. […] Freezing, defined as a species-specific defensive reaction characterized by lack of movement besides respiration and heartbeat, associated with crouching posture, was used as a measure of learning, and assessed for 180 s, every 9 s by two trained observers […] of the mouse genotypes and the pharmacological agent being used. The mean number of observations indicating freezing behavior was expressed as percentage of freezing in relation to the total number of observations. All experiments were video-recorded, for automated video-analysis, confirmation of the trained-observer scores, and archival purposes.
In addition, the mice continued to consume these same food preparations during the two days necessary to perform the behavioral testing.

Rat IV pharmacokinetics [1] = type: in vivo; details: after IV bolus 1 mg/kg
[2] = Mouse PO pharmacokinetics (plasma and brain); type: in vivo; details: for Tmax: po
Description: For determining plasma and brain pharmacokinetics blood samples (via cardiac puncture into heparinized tubes and centrifuged for plasma at 4 °C) and brains were terminally sampled at 0.25, 0.5, 1, 2, 3, 4, 6, and 8 h timepoints post dosing. Three animals per timepoint were sampled. The three animals designated for the 8 h timepoint were housed in a metabolism cage post-dosing for collection of urine. All samples were stored at −20 °C pending analysis. Bioanalysis was carried out by UHPLC-TOF mass spectrometry using electrospray ionization against matrix matched calibration lines.
The pharmacokinetic parameters were subsequently calculated by noncompartmental methods.
Samples are prepared by protein precipitation and/or dilution: tissues are homogenized first. Analysis is carried out using a generic internal standard, with matrix-matched calibration standards bracketing the study samples.
Samples were analyzed by high resolution accurate mass UHPLC-TOF MS. […] The mass spectrometer was operated in full scan mode, with positive ion electrospray data acquired over the m/z mass range 100–1000.

[3] = Mouse microsome stability assay; type: in vitro ADME; details: microsomes
Rat IV pharmacokinetics [4] = type: in vivo; details: plasma
Description: For determining plasma pharmacokinetics blood samples (via cardiac puncture into heparinized tubes and centrifuged for plasma at 4 °C) were serially sampled via jugular vein at […], 0.5, 5, 15, and 30 min, 1, 2, 4, 8, and 24 h timepoints post dosing. Three animals per timepoint were sampled. All samples were stored at −20 °C pending analysis. Bioanalysis was carried out by UHPLC-TOF mass spectrometry using electrospray ionization against matrix matched calibration lines. The pharmacokinetic parameters were subsequently calculated by noncompartmental methods. Samples are prepared by protein precipitation and/or dilution: tissues are homogenized first. Analysis is carried out using a generic internal standard, with matrix-matched calibration standards bracketing the study samples. Samples were analyzed by high resolution accurate mass UHPLC-TOF MS. […] The mass spectrometer was operated in full scan mode, with positive ion electrospray data acquired over the m/z mass range 100–1000.

SIK3 = SIK3 (Homo sapiens, UniProt Q9Y2K2); assay: Kinase profile (33P ATP filter binding); type: biochemical
Chain of SIK3 (Q9Y2K2 whole entry): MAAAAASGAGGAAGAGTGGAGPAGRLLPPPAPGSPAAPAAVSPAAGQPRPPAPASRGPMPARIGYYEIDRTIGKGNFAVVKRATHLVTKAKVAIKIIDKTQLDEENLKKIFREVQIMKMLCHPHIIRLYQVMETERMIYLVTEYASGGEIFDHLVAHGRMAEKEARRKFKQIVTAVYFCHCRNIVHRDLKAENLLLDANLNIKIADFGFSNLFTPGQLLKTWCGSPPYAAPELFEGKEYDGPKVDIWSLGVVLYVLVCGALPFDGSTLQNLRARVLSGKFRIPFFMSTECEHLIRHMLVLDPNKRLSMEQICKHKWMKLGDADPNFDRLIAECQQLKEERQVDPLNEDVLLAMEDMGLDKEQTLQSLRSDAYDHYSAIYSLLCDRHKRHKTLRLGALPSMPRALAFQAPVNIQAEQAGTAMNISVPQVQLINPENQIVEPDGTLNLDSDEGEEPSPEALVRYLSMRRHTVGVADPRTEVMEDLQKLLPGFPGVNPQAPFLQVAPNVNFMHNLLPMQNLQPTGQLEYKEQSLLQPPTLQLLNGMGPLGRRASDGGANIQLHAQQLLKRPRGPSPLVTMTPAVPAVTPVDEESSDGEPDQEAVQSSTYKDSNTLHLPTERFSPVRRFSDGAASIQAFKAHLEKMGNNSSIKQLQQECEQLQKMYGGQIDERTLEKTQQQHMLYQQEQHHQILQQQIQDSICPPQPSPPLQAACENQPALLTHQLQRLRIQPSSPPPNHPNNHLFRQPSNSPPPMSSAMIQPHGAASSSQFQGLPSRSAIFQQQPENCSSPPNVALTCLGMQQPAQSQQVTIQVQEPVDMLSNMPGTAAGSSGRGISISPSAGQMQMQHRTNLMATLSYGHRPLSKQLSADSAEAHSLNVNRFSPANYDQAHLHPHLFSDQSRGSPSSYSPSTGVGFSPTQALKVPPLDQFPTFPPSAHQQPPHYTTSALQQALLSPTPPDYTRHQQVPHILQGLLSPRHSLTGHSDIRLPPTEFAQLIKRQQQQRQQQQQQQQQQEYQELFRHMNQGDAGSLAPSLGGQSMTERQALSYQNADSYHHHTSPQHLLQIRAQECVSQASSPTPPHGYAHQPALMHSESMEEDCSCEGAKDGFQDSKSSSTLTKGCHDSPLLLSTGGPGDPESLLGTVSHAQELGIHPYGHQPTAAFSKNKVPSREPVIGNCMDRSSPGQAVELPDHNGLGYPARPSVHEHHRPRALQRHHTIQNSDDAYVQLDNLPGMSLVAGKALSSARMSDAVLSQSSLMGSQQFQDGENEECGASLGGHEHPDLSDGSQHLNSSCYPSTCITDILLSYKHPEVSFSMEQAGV

139-protein kinase panel = assay: Selectivity on protein kinase panel (GINI-index); details: in words
Description: The determination of protein kinase inhibition was performed at the International Centre for Kinase Profiling at the University of Dundee, UK. The method used is a radioactive filter binding assay using ^33P ATP as described in the literature [79]. The ATP concentrations were at or below the calculated Km for ATP for each particular kinase.

DYRK3 = DYRK3 (Homo sapiens, UniProt O43781); assay: Kinase profile (33P ATP filter binding); type: biochemical; details: read-out: Remaining protein kinase activity
Chain of DYRK3 (O43781 whole entry): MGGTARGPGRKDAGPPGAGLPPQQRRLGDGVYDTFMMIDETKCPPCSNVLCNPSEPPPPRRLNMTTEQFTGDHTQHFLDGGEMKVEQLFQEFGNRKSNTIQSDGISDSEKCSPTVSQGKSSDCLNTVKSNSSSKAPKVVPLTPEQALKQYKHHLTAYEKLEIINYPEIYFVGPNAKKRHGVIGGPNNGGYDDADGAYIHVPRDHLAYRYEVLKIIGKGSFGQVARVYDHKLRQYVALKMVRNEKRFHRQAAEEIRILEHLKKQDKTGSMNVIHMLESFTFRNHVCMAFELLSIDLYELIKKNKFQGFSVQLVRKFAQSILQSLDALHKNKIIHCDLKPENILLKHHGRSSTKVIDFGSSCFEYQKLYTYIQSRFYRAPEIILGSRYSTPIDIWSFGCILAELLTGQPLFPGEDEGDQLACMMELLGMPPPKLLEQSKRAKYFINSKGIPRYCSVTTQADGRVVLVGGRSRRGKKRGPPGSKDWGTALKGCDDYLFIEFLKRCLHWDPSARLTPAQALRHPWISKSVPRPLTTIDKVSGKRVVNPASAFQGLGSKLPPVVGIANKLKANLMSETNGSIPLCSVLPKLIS

CLK2 = CLK2 (Homo sapiens, UniProt P49760); assay: Kinase profile (33P ATP filter binding); type: biochemical; details: read-out: Remaining protein kinase activity
Chain of CLK2 (P49760 whole entry): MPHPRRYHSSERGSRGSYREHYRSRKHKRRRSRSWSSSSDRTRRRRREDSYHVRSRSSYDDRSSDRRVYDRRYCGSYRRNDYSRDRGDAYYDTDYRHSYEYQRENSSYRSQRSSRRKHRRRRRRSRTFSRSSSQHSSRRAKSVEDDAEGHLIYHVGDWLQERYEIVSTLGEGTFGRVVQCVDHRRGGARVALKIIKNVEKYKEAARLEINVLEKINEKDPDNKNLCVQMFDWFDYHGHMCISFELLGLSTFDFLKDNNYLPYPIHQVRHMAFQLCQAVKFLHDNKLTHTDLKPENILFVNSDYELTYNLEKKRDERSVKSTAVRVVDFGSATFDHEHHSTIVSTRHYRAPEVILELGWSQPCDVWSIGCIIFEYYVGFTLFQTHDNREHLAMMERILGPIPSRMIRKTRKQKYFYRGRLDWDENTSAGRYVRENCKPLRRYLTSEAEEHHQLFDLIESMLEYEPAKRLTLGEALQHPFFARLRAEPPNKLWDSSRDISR

FGF-R1 = FGF-R1 (Homo sapiens, UniProt P11362); assay: Kinase profile (33P ATP filter binding); type: biochemical; details: read-out: Remaining protein kinase activity
Chain of FGF-R1 (P11362 22-822): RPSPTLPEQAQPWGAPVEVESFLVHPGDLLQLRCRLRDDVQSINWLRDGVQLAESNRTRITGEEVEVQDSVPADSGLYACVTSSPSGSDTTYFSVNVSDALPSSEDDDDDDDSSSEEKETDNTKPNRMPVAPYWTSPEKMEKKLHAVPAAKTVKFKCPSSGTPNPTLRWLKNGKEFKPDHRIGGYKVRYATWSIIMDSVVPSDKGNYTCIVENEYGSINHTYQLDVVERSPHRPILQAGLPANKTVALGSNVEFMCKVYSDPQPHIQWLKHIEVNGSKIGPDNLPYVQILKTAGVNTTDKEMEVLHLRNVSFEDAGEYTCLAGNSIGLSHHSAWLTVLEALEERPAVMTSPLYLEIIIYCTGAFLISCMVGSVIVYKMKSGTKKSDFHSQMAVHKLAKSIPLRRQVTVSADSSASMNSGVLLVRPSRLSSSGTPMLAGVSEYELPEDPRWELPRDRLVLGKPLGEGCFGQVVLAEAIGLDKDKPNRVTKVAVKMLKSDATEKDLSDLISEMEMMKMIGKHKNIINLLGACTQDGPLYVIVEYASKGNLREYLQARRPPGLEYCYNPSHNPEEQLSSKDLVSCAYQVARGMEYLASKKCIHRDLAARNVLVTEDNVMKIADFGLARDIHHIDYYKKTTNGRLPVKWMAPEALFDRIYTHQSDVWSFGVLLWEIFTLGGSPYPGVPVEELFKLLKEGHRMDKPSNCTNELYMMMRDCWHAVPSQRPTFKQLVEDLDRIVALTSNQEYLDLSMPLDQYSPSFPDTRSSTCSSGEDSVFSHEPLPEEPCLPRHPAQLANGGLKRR

DYRK2 = DYRK2 (Homo sapiens, UniProt Q92630); assay: Kinase profile (33P ATP filter binding); type: biochemical; details: read-out: Remaining protein kinase activity
Chain of DYRK2 (Q92630 whole entry): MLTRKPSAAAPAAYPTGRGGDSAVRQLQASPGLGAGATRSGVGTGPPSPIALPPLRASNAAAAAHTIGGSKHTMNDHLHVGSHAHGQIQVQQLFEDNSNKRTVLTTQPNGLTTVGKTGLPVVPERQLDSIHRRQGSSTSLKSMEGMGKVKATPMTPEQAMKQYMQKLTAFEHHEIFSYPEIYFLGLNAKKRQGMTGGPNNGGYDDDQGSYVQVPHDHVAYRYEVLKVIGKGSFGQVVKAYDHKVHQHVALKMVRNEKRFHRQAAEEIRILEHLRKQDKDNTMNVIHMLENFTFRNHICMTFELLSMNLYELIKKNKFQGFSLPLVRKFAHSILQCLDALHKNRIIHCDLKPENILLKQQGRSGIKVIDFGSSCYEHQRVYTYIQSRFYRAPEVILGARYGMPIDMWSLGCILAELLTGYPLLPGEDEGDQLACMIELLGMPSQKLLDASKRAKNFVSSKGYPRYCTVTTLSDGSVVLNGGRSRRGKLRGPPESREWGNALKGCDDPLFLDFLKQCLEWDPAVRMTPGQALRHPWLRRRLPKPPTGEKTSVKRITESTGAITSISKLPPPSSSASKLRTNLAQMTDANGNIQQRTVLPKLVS

GSK3b = GSK3b (Homo sapiens, UniProt P49841); assay: Kinase profile (33P ATP filter binding); type: biochemical; details: read-out: Remaining protein kinase activity
Chain of GSK3b (P49841 whole entry): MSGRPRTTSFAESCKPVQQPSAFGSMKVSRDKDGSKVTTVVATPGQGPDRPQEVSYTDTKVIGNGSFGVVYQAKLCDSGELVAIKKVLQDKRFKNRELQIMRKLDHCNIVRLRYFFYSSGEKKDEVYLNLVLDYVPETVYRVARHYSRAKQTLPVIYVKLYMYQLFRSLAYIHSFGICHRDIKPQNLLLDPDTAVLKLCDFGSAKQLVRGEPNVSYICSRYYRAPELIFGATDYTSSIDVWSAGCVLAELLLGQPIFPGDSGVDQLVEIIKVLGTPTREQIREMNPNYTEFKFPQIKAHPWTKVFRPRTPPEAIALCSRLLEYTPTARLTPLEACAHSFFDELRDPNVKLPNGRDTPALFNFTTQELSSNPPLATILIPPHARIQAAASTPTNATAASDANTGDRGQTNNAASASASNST

DYRK1A = DYRK1A (Homo sapiens, UniProt Q13627); assay: Kinase profile (33P ATP filter binding); type: biochemical; details: read-out: Remaining protein kinase activity
[5] = male, Sprague-Dawley, IV 1 mg/kg

In the case of `COc1ccc2sc(-c3cncc(NC(C)=O)c3)nc2c1` [PST-001, N-(5-(5-Methoxybenzo[d]thiazol-2-yl)pyridin-3-yl)acetamide], the “Learning and memory deficits (freezing in context test)” value (Ts65Dn mice; Ts65Dn mice, PST-001 in the food) is reported as “completely eliminated the learning and memory deficits”, the Tolerability (Ts65Dn mice; Ts65Dn mice, chronic oral administration) is reported as “well tolerated” and the “Percentage of freezing behavior” value (Ts65Dn mice; control euploid mice, PST-001 in the food) is reported as “no detectable effects”. The “PST-001 in the urine” value (Rat IV pharmacokinetics [1]) was “No PST-001 could be found”, the Kp ([2]; male, C57BL/6, mouse, brain, 5 mg/kg, at Tmax after PO administration, read-out: brain level as share of the plasma level) was 0.5 and the Tmax ([2]; male, C57BL/6, mouse, brain, 5 mg/kg, mouse, PO 5 mg/kg) was 15 min. For the same compound, the Tmax ([2]; male, C57BL/6, mouse, plasma, 5 mg/kg, PO administration) was 15 min, the Tmax ([2]; male, C57BL/6, mouse, plasma, 5 mg/kg, mouse, PO 5 mg/kg) was 60 min and the Cmax ([2]; male, C57BL/6, mouse, PO 5 mg/kg, brain) was 153 ng/mL. The half-life ([2]; male, C57BL/6, mouse, PO 5 mg/kg, brain, read-out: t½ (converted)) was 16.2 min, the Cmax ([2]; male, C57BL/6, mouse, PO 5 mg/kg, plasma) was 76 ng/mL and the AUCall ([2]; mouse, PO 5 mg/kg, brain) was 189 h ∗ ng/mL. It also gave an AUCall ([2]; mouse, PO 5 mg/kg, plasma) of 89 h ∗ ng/mL, a half-life ([3]; read-out: half-life (t½)) of 25 min and a microsomal CLint ([3]; read-out: intrinsic clearance, Cint) of 55 µL/min/mg. For the same compound, the AUCall (Rat IV pharmacokinetics [4]; IV 1 mg/kg) was 158 h ∗ ng/mL, the half-life (Rat IV pharmacokinetics [4]; Sprague-Dawley (rat), C57BL/6 (mouse), intravenous, oral, mouse or rat, IV or PO, read-out: t1/2 in plasma) was < 60 min and the Cmax (Rat IV pharmacokinetics [4]; [5]) was 647 ng/mL. The Vd (Rat IV pharmacokinetics [4]; [5]) was 2.39 L/kg, the clearance (Rat IV pharmacokinetics [4]; [5]) was 105 mL/min/kg and the Tmax (Rat IV pharmacokinetics [4]; male, Sprague-Dawley, iv, 1 mg/kg, IV 1 mg/kg, read-out: Tmax) was 1.8 min. It also gave a half-life (Rat IV pharmacokinetics [4]; male, Sprague-Dawley, iv, 1 mg/kg, IV 1 mg/kg, read-out: t½ (converted)) of 43.2 min, a half-life (Rat IV pharmacokinetics [4]; male, Sprague-Dawley, iv, 1 mg/kg, IV bolus 1 mg/kg, circulation, read-out: t½ (converted)) of 43 min and a Tmax (Rat IV pharmacokinetics [4]; male, Sprague-Dawley, iv, 1 mg/kg, IV bolus 1 mg/kg, read-out: Time of maximum venous concentration (Tmax) (converted)) of 2 min. The “Remaining protein kinase activity” value (SIK3; 1 μM) was 114% and the “Remaining protein kinase activity” value (SIK3; 100 μM) was 78%.
For `COc1ccc2sc(-c3cncc(N)c3)nc2c1` [compound 1, 5-(5-Methoxybenzo[d]thiazol-2-yl)pyridin-3-amine], the “Selectivity in the protein kinase panel” value (139-protein kinase panel) was “high selectivity towards DYRK1A”, the remaining activity at 1 µM (DYRK3; 1 μM) was 14% and the remaining activity at 100 µM (DYRK3; 100 μM) was 2%. It also gave a remaining activity at 1 µM (CLK2; 1 μM) of 23%, a remaining activity at 100 µM (CLK2; 100 μM) of 1% and a remaining activity at 1 µM (FGF-R1; 1 μM) of 110%. The remaining activity at 100 µM (FGF-R1; 100 μM) was 91%, the remaining activity at 1 µM (DYRK2; 1 μM) was 11% and the remaining activity at 100 µM (DYRK2; 100 μM) was 1%. For the same compound, the remaining activity at 1 µM (GSK3b; 1 μM) was 107%, the remaining activity at 100 µM (GSK3b; 100 μM) was 25% and the remaining activity at 1 µM (DYRK1A; 1 μM) was 7%. The remaining activity at 100 µM (DYRK1A; 100 μM) was 0%, the “Remaining protein kinase activity” value (SIK3; 1 μM) was 106% and the “Remaining protein kinase activity” value (SIK3; 100 μM) was 19%.
